Tests used:
[1] = test system: KO mice (Cdkal1 knock-out mice, type 2 diabetes model); assay: Screening simulation: fasting and glucose-tolerance blood glucose level after Exendin-4 in KO mice; format: in vivo, mouse; details: intraperitoneal, 0.1 mg per kg twice a day, after 1 week and 2 weeks, ANOVA p=0.02
Description: (§1) To the KO mice used for the verification of periodical changes of blood glucose level, Exendin-4 which is an agonist of a glucagon-like peptide-1 receptor known as a therapeutic agent for type 2 diabetes was intraperitoneally administrated as a test substance. A degree of type 2 diabetes was then evaluated using the KO mice to simulate the screening of the preventive or therapeutic agent for type 2 diabetes caused by the Cdkal1 abnormality.
(§2) The procedures for evaluating the degree of type 2 diabetes consists of measuring the fasting blood glucose level and glucose-tolerance blood glucose level for KO mice and WT mice, comparing the blood glucose levels for both of the mice, and evaluating them. In this test, Exendin-4 was administered twice a day for 2 weeks at a rate of 0.1 mg per kg, of body weight.

[2] = test system: WT mice (wild type mice); assay: Screening simulation: fasting and glucose-tolerance blood glucose level after Exendin-4 in WT mice; format: in vivo, mouse; details: intraperitoneal, 0.1 mg per kg twice a day, after 1 week and 2 weeks, ANOVA p=0.02
Description: as §1, §2

**Q.** Which “glucose tolerance (blood glucose level after glucose tolerance)” value [1] does the source give for Exendin-4 here?
**A.** The value was “significantly improved glucose tolerance”.

**Q.** What about the “glucose tolerance (blood glucose level after glucose tolerance)” value [2] of the same substance?
**A.** Its value is “significantly improved glucose tolerance”.

From US8841508B2, “Non-human mammalian animal model for type 2 diabetes” (National University Corporation, priority 2009, dated 2014)
